According to patent US20230276836A1, “ORAL RETENTION COMPOSITION” (BIZEN CHEMICAL CO., LTD., priority 2020, published 2023):

Test: Reactivity index (RI) between compound and carrageenan, viscosity change (Test Examples 2, 10)
Type: physicochemical
Conditions: uncoated compound, 10 ppm in 1 mass% carrageenan
Protocol: The measurement device, measurement, control sample, and D0 were the same as those in Test Example 1. An aqueous methanol solution containing a polyphenolic compound was prepared by dissolving the polyphenolic compound in an aqueous methanol solution (methanol concentration: 50 mass%) and diluted to 1 mg/mL in a measuring cylinder. 200 µL of this solution was added to 20 g of the same solution as the control sample (aqueous solution of 1 mass% carrageenan) and homogeneously mixed. The obtained solution was determined to be an uncoated sample. Additionally, a solution was prepared in the same manner as the uncoated sample, except that a 50% (v/v) aqueous methanol solution was used instead of the aqueous methanol solution containing a polyphenolic compound and determined to be a methanol sample. Evaluation Method: The progress distance (mm) of the control sample is D0. The progress distance (mm) of the uncoated sample is D1. The progress distance (mm) of the methanol sample is D1M. The reactivity index (RI) between a polyphenolic compound and carrageenan was calculated according to the following formula.
In this test system, the addition of an aqueous solution causes some decrease in viscosity due to a dilution effect. Thus, the determination method described above was used to detect the changes in viscosity due to the effect of a polyphenolic compound. Note that ±10% of the RI value was assumed to be within the margin of error (i.e., an RI value of 0.9 to 1.1 was assumed to be within the margin of error).
In the same manner as in Test Example 2, epigallocatechin gallate (polyphenolic compound), syringin and eleutheroside E (lignan compounds), and spermidine (basic substance) were prepared, and the effects of these substances on the viscosity of carrageenan were measured, and their reactivity was evaluated. Note that spermidine was dissolved in purified water, and the prepared aqueous solution was used as a sample.

[1] = Test Example 2, vs methanol sample, 1.1<RI = viscosity decreased
[2] = Test Example 10, spermidine dissolved in purified water

Compound	RI [1]	RI [2]
O=C(OC[C@H]1O[C@@H](OC(=O)c2cc(O)c(O)c(OC(=O)c3cc(O)c(O)c(O)c3)c2)[C@H](OC(=O)c2cc(O)c(O)c(OC(=O)c3cc(O)c(O)c(O)c3)c2)[C@@H](OC(=O)c2cc(O)c(O)c(OC(=O)c3cc(O)c(O)c(O)c3)c2)[C@@H]1OC(=O)c1cc(O)c(O)c(OC(=O)c2cc(O)c(O)c(O)c2)c1)c1cc(O)c(O)c(OC(=O)c2cc(O)c(O)c(O)c2)c1 [Comparative Example 4, Tannic Acid]	2.5	
COc1cc([C@H]2OC[C@@H]3[C@@H]2CO[C@H]3c2cc(OC)c(O[C@@H]3O[C@H](CO)[C@@H](O)[C@H](O)[C@H]3O)c(OC)c2)cc(OC)c1O[C@@H]1O[C@H](CO)[C@@H](O)[C@H](O)[C@H]1O [Comparative Example 14, Eleutheroside E]		2.1
NCCCCNCCCN [Comparative Example 15, Spermidine]		1.5
COc1cc(/C=C/CO)cc(OC)c1O[C@@H]1O[C@H](CO)[C@@H](O)[C@H](O)[C@H]1O [Comparative Example 13, Syringin]		2.3
Oc1ccc(C=Cc2cc(O)cc(O)c2)cc1 [Comparative Example 6, Resveratrol]	3.5	
O=C(O[C@@H]1Cc2c(O)cc(O)cc2O[C@@H]1c1cc(O)c(O)c(O)c1)c1cc(O)c(O)c(O)c1 [Comparative Example 12, Epigallocatechin Gallate]		4.4

More lines, main results first:

RI [1]	Compound	RI [2]
2.2	O=c1c(O)c(-c2ccc(O)c(O)c2)oc2cc(O)cc(O)c12 [Comparative Example 5, Quercetin]	
4.1	O=C(/C=C/c1ccc(O)c(O)c1)O[C@@H]1C[C@](O)(C(=O)O)C[C@@H](O)[C@H]1O [Comparative Example 3, Chlorogenic Acid]	
